Results from patent publication US20210221785A1, “AMINO-PYRIMIDONYL DERIVATIVES, A PROCESS FOR THEIR PREPARATION AND PHARMACEUTICAL COMPOSITIONS CONTAINING THEM” (LES LABORATOIRES SERVIER, priority 2018, published 2021).

Legend:
[1] = test system: Z138 mantle cell lymphoma tumour cell lines; test: In vitro cytotoxicity, MTT assay; format: cell-based; details: Homo sapiens, Z-138, 96 h, Z138 cells exposed to the test compounds for 96 hours; cell viability vs DMSO treated cells
Procedure: The cytotoxicity studies were evaluated by MTT [3-(4,5-dimethylthiazol-2-yl)-2,5-diphenyltetrazolium bromide] assay and carried out on Z138 mantle cell lymphoma tumour cell lines. The cells are distributed onto microplates and exposed to the test compounds for 96 hours. MTT is then added for 4 hours and converted by NAD(P)H-dependent cellular oxidoreductase enzymes in formazan, which has a purple color. The viable cell number is proportional to the production of formuan salts and cell viability can be quantified by the absorbance of the solution at 540 nm with a speetrophotometer (Carmichael et al., Cancer Res. 1987, 47, 936-942).

[2] = target: T1, His-His-USP7 (aa208-560, |C315A|) (Homo sapiens, UniProt Q93009, C315A); test: Evaluation of the inhibition of USP7 by the Fluorescence Intensity (FLINT) readings; format: biochemical; details: 0.25 nM His-His-USP7, compound incubated 60 minutes at 30° C., 500 nM Ubiquitin-Rhodamine-110 substrate; 50% reduction in kinetic rate
T1 construct: His-His-USP7 (aa208-560, |C315A|); His-His (N)
T1 sequence (Q93009 208-560 C315A): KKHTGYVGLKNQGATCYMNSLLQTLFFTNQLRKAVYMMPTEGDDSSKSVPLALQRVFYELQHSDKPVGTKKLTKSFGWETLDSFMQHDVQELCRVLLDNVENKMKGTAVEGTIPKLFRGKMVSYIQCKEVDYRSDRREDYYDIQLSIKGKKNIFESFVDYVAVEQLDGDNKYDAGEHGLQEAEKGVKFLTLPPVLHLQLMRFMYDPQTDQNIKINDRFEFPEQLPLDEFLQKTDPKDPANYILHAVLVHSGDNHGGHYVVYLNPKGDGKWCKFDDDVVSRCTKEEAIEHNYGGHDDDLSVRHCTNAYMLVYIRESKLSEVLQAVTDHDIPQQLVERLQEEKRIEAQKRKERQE
Procedure: USP7 activity was measured using Rhodamine-110 c-terminal labelled Ubiquitin as a substrate (UbiQ Bio). Incubation with USP7 results in the release of Rhodamine-110 leading to an increase in fluorescence which can be used in the continuous measurement of USP7 activity.
The USP7 reactions were performed in a 50 μL volume, in 384 well black solid low binding plates (Corning #3575). The reaction buffer consisted of 100 mM Bicine pH 8.0, 0.01% TritonX100, 1 mM TCEP, and 10% DMSO.
0.25 nM His-His-USP7 (aa208-560, |C315A|) was incubated with compound (final concentration 10% DMSO) for 60 minutes at 30° C. The reaction was then initiated by the addition of 500 nM Ubiquitin-Rhodamme-110 substrate and the plate read every 3 minutes for 21 minutes to measure the release of Rhodamine-110. Fluorescence Intensity (FLINT) readings were measured using a […] plate reader (Ex.485 nm, Em.535 nm).
The inhibition of increasing doses of compound was expressed as a percentage reduction in kinetic rate compared to the kinetic rates established between ‘DMSO only’ and ‘total inhibition’ controls (no USP7). The inhibitory concentrations that gave a 50% reduction in kinetic rate (IC50) were determined, from 11-point dose response cures, in XL-Fit using a 4-Parameter Logistic Model 205 (Sigmoidal Dose-Response Model).

Row | Compound | IC50 [2] | IC50 [1]
1 | Nc1c(Oc2ccc(F)cc2)ncn(CC2(O)CCN(C(=O)[C@@H]3CCC(F)(F)C[C@H]3c3ccccc3)CC2(F)F)c1=O (stereo partly drawn) [Example 45, 5-amino-3-({1-[(1R,2R)-4,4-difluoro-2-phenylcyclohexane-1-carbonyl]-3,3-difluoro-4-hydroxypiperidin-4-yl}methyl)-6-(4-fluorophenoxy)pyrimidin-4(3H)-one] | 0.057 µM | 0.115 µM
2 | COc1cc(Oc2ncn(CC3(O)CCN(C(=O)[C@@H]4CCC(F)(F)C[C@H]4c4ccccc4)CC3)c(=O)c2N)ccc1F [Example 16, 5-amino-3-({1-[(1R,2R)-4,4-difluoro-2-phenylcyclohexane-1-carbonyl]-4-hydroxypiperidin-4-yl}methyl)-6-(4-fluoro-3-methoxyphenoxy)pyrimidin-4(3H)-one] | 0.0516 µM | 0.0424 µM
3 | Nc1c(Oc2ccc(F)cc2)ncn(CC2(O)CCN(C(=O)C3CCC(O)(Cc4ccc(F)cc4)CC3c3ccccc3)CC2)c1=O [Example 99, rel-5-amino-6-(4-fluorophenoxy)-3-({1-[(1R,2R,4R)-4-[(4-fluorophenyl))methyl]-4-hydroxy-2-phenylcyclohexanecarbonyl]-4-hydroxypiperidin-4-yl}methyl)-3,4-dihydropyrimidin-4-one] |  | 0.0128 µM
4 | Nc1c(Oc2ccc(CCC3CCCCN3)cc2)ncn(CC2(O)CCN(C(=O)[C@@H]3CCC(F)(F)C[C@H]3c3ccccc3)CC2)c1=O (stereo partly drawn) [Example 114, 5-amino-3-({1-[(1R,2R)-4,4-difluoro-2-phenylcyclohexane-1-carbonyl]-4-hydroxypiperidin-4-yl}methyl)-6-{4-[2-(piperidin-2-yl)ethyl]phenoxy}pyrimidin-4(3H)-one] | 0.0487 µM | 
5 | Nc1c(Oc2cccc(OC(F)(F)F)c2)ncn(CC2(O)CCN(C(=O)[C@@H]3CCC(F)(F)C[C@H]3c3ccccc3)CC2)c1=O [Example 18, 5-amino-3-({1-[(1R,2R)-4,4-difluoro-2-phenylcyclohexane-1-carbonyl]-4-hydroxypiperidin-4-yl}methyl)-6-[3-(trifluoromethoxy)phenoxy]pyrimidin-4(3H)-one] | 0.247 µM | 
6 | Nc1c(Oc2ccccc2)ncn(C[C@]2(O)CCN(C(=O)[C@@H]3CCC(F)(F)C[C@H]3c3ccccc3)CC2(F)F)c1=O [Example 10, 5-amino-3-[[(4R)-1-[(1R,2R)-4,4-difluoro-2-phenyl-cyclohexanecarbonyl]-3,3-difluoro-4-hydroxy-4-piperidyl]methyl]-6-phenoxy-pyrimidin-4-one] | 4.32 µM | 
7 | NC(=O)c1ccc(Oc2ncn(CC3(O)CCN(C(=O)[C@@H]4CCC(F)(F)C[C@H]4c4ccccc4)CC3)c(=O)c2N)c(Cl)c1 [Example 107, 4-{[5-amino-1-({1-[(1R,2R)-4,4-difluoro-2-phenylcyclohexane-1-carbonyl]-4-hydroxypiperidin-4-yl}methyl)6-oxo-1,6-dihydropyrimidin-4-yl]oxy}-3-chlorobenzamide] | 0.479 µM | 
8 | O=C([C@@H]1CCC(F)(F)C[C@H]1c1ccccc1)N1CCC(O)(Cn2cnc(Oc3ccccc3)c(NCC(F)(F)F)c2=O)CC1 [Example 17, 3-({1-[(1R,2R)-4,4-difluoro-2-phenylcyclohexane-1-carbonyl]-4-hydroxypiperidin-4-yl}methyl)-6-phenoxy-5-[(2,2,2-trifluoroethyl)amino]pyrimidin-4(3H)-one] | 1.25 µM | 
9 | COc1cc(OC)cc(Oc2ncn(CC3(O)CCN(C(=O)[C@@H]4CCC(F)(F)C[C@H]4c4ccccc4)CC3)c(=O)c2N)c1 [Example 7, 5-amino-3-({1-[(1R,2R)-4,4-difluoro-2-phenylcyclohexane-1-carbonyl]-4-hydroxypiperidin-4-yl}methyl)-6-(3,5-dimethoxyphenoxy)pyrimidin-4(3H)-one] | 0.181 µM | 

The remaining molecules from weak to strong by IC50 [2], led by results:

Row | IC50 [2] | Compound | IC50 [1]
10 | 0.461 µM | Nc1c(Oc2ccc(F)cc2)ncn(CC2(O)CCN(C(=O)[C@@H]3CC[C@](O)(c4ccccc4)C[C@H]3c3ccccc3)CC2)c1=O (relative stereo) [Example 102, rel-5-amino-6-(4-fluorophenoxy)-3-[(4-hydroxy-1-{[(1R,2R,4R)-4-hydroxy-2,4-diphenylcyclohexyl]carbonyl}piperidin-4-yl)methyl]pyrimidin-4-one] | 
11 | 0.244 µM | Nc1c(Oc2ccc(F)cc2)ncn(CC2(O)CCN(C(=O)[C@@H]3CC[C@@](O)(Cc4ccc(F)cc4)C[C@H]3c3ccccc3)CC2)c1=O (relative stereo) [Example 100, rel-5-amino-6-(4-fluorophenoxy)-3-[(1-{[(1R,2R,4S)-4-[(4-fluorophenyl)methyl]-4-hydroxy-2-phenylcyclohexyl]carbonyl}-4-hydroxypiperidin-4-yl)methyl]pyrimidin-4-one] | 
12 | 0.175 µM | Nc1c(Oc2ccc(CCCO)cc2)ncn(CC2(O)CCN(C(=O)[C@@H]3CCC(F)(F)C[C@H]3c3ccccc3)CC2)c1=O [Example 29, 5-amino-3-({1-[(1R,2R)-4,4-difluoro-2-phenylcyclohexane-1-carbonyl]-4-hydroxypiperidin-4-yl}methyl)-6-[4-(3-hydroxypropyl)phenoxy]pyrimidin-4(3H)-one] | 
13 | 0.151 µM | Nc1c(Sc2ccccc2)ncn(CC2(O)CCN(C(=O)[C@@H]3CCC(F)(F)C[C@H]3c3ccccc3)CC2)c1=O [Example 30, 5-amino-3-({1-[(1R,2R)-4,4-difluoro-2-phenylcyclohexane-1-carbonyl]-4-hydroxypiperidin-4-yl}methyl)-6-(phenylsulfanyl)pyrimidin-4(3H)-one] | 
14 | 0.14 µM | Nc1c(Oc2ccc(CN3CCOCC3)cc2)ncn(CC2(O)CCN(C(=O)[C@@H]3CCC(F)(F)C[C@H]3c3ccccc3)CC2)c1=O [Example 113, 5-amino-3-({1-[(1R,2R)-4,4-difluoro-2-phenylcyclohexane-1-carbonyl]-4-hydroxypiperidin-4-yl}methyl)-6-{4-[(morpholin-4-yl)methyl]phenoxyl}pyrimidin-4(3H)-one] | 
15 | 0.116 µM | N#Cc1ccc(Oc2ncn(CC3(O)CCN(C(=O)[C@@H]4CCC(F)(F)C[C@H]4c4ccccc4)CC3)c(=O)c2N)cc1F [Example 50, 4-{[5-amino-1-({1-[(1R,2R)-4,4-fluoro-2-phenylcyclohexane-1-carbonyl]-4-hydroxypiperidin-4-yl}methyl)-6-oxo-1,6-dihydropyrimidin-4-yl]oxy}-2-fluorobenzonitrile] | 
16 | 0.1 µM | NC(=O)c1cccc(Oc2ncn(CC3(O)CCN(C(=O)[C@@H]4CCC(F)(F)C[C@H]4c4ccccc4)CC3)c(=O)c2N)c1 [Example 62, 3-{[5-amino-1-([1-[(1R,2R)-4,4-difluoro-2-phenylcyclohexane-1-carbonyl]-4-hydroxypiperidin-4-yl]methyl)-6-oxy-1,6-dihydropyrimidin-4-yl]oxy}benzamide] | 
17 | 0.0862 µM | Nc1c(Oc2ccc([C@@H](N)C(F)(F)F)cc2)ncn(CC2(O)CCN(C(=O)[C@@H]3CCC(F)(F)C[C@H]3c3ccccc3)CC2)c1=O [Example 116, 5-amino-6-{4-[(1R)-1-amino-2,2,2-trifluoroethyl]phenoxy}-3-({1-[(1R,2R)-4,4-difluoro-2-phenylcyclohexane-1-carbonyl]-4-hydroypiperidin-4-yl}methyl)pyrimidin-4(3H)-one] | 
18 | 0.03 µM | N#Cc1ccc(Oc2ncn(CC3(O)CCN(C(=O)[C@@H]4CCC(F)(F)C[C@H]4c4ccccc4)CC3)c(=O)c2N)cc1 [Example 24, 4-{[5-amino-1-({1-[(1R,2R)-4,4-difluoro-2-phenylcyclohexane-1-carbonyl]-4-hydroxypiperidin-4-yl}methyl)-6-oxo-1,6-dihydropyrimidin-4-yl]oxy}benzonitrile] | 0.165 µM
19 | 0.01 µM | CC(C)(C)NCc1ccc(Oc2ncn(CC3(O)CCN(C(=O)[C@@H]4CCC(F)(F)C[C@H]4c4ccccc4)CC3)c(=O)c2N)cc1 [Example 75, 5-amino-6-{4-[(tert-butylamino)methyl]phenoxy}-3-({1-[(1R,2R)-4,4-difluoro-2-phenylcyclohexane-1-carbonyl]-4-hydroxypiperidin-4-yl}methyl)pyrimidin-4(3H)-one] | 0.184 µM
20 | 0.00677 µM | Nc1c(Oc2ccc(F)cc2)ncn(CC2(O)CCN(C(=O)[C@@H]3CC[C@](F)(C#Cc4cc(F)ccn4)C[C@H]3c3ccccc3)CC2)c1=O [Example 157, 5-amino-3-({1-[(1R,2R,4R)-4-fluoro-4-[2-(4-fluoropyridin-2-yl)ethynyl]-2-phenylcyclohexanecarbonyl]-4-hydroxypiperidin-4-yl}methyl)-6-(4-fluorophenoxy)-3,4-dihydropyrimidin-4-one] | 0.00716 µM
